Converted amounts (≈) assume the structure as drawn. Read-outs that look alike come from different tables or passages of the source.
Legend:
Test in all cases: Microbicidal activity, minimum inhibitory concentration to kill 10^6 germs per ml
Format in all cases: cell-based
Conditions in all cases: room temperature, 10^6 Keime pro ml, read-out: minimale Hemmkonzentration
[1] = system: Escherichia coli
Experimental: (§1) Die mikrobiozide Wirkung der erfindungsgemäßen Verbindungen zeigt Tabelle I (µg Wirkstoff/ml Wasser; Kontaktzeit 24 und 48 h; Raumtemperatur). Die angegebenen Zahlen bedeuten die minimalen Hemmkonzentrationen, um die vorgelegte Keimzahl von 10^6 Keimen pro ml abzutöten.

[2] = system: Proteus mirabilis
Experimental: as §1

[3] = system: Pseudomonas aeruginosa
Experimental: as §1

[4] = system: Klebsiella pneumoniae
Experimental: as §1

[5] = system: Desulfovibrio desulfuricans 39
Experimental: as §1

[6] = system: Staphylococcus aureus
Experimental: as §1

[7] = system: Aspergillus niger
Experimental: as §1

[8] = system: Desulfovibrio desulfuricans 85
Experimental: as §1

[9] = system: Candida albicans
Experimental: as §1

## CCCCCCCCCCN(CCCNC(=N)N)CCCNC(=N)N [Beispiel 3]
[1]; contact time 24 h
  MIC: 250 µg/mL (≈ 703 µM)
[1]; contact time 48 h
  MIC: 62.5 µg/mL (≈ 176 µM)
[2]; contact time 24 h
  MIC: 250 µg/mL (≈ 703 µM)
[2]; contact time 48 h
  MIC: 62.5 µg/mL (≈ 176 µM)
[3]; contact time 24 h
  MIC: 500 µg/mL (≈ 1410 µM)
[3]; contact time 48 h
  MIC: 62.5 µg/mL (≈ 176 µM)
[4]; contact time 24 h
  MIC: 500 µg/mL (≈ 1410 µM)
[4]; contact time 48 h
  MIC: 62.5 µg/mL (≈ 176 µM)
[5]; contact time 24 h
  MIC: 15.6 µg/mL (≈ 43.9 µM)
[5]; contact time 48 h
  MIC: 7.8 µg/mL (≈ 21.9 µM)
[6]; contact time 24 h
  MIC: 250 µg/mL (≈ 703 µM)
[6]; contact time 48 h
  MIC: 62.5 µg/mL (≈ 176 µM)
[7]; contact time 24 h
  MIC: > 1000 µg/mL
[7]; contact time 48 h
  MIC: > 1000 µg/mL
[8]; contact time 24 h
  MIC: 7.8 µg/mL (≈ 21.9 µM)
[8]; contact time 48 h
  MIC: 7.8 µg/mL (≈ 21.9 µM)
[9]; contact time 24 h
  MIC: 250 µg/mL (≈ 703 µM)
[9]; contact time 48 h
  MIC: 62.5 µg/mL (≈ 176 µM)
